# Measured values reported in patent publication US10420734B2, “Method of treating cancer using selective estrogen receptor modulators” (Duke University, priority 2014, dated 2019).
# Assays:
# [1] = system: MCF7 xenograft tumors; test: MCF7 xenograft tumor study in estrogen-treated ovariectomized nu/nu mice; format: in vivo; settings: 20 mg/kg sc daily
# Procedure: A total of 90 female Nu/Nu mice were ovariectomized and implanted subcutaneous simultaneously with an estrogen pellet (Innovative Research of America) releasing 0.72 mg estradiol (E2) over 60 days. 2 days later an approximately 6 mm^3 fragment of an MCF7 xenograft tumor (isolated from a recently sacrificed estrogen treated nu/nu mouse) was inserted subcutaneous into the axial mammary gland. Tumor growth (by caliper measurement) and animal body weight were monitored 3× weekly until tumor volume reached ˜0.2 cm^3. […] Treatments were formulated in sterile corn oil and were administered daily by subcutaneous injection. After 3 weeks of treatments, animals were euthanized and serum and tissues saved for analysis. FIG. 1B depicts tumor volume analyzed using non-linear curve fit and exponential growth calculation (Graphpad Prism), followed by two-way ANOVA and Bonferroni analysis.
# Xenograft tumor analysis: Estrogen-stimulated MCF7 tumors were initiated in the axial mammary gland of 6-week old estrogen-treated (0.72 mg/60 days pellet sc, Innovative Research of America) ovariectomized female NU/NU mice (in-house colony) by serial transfer and were measured as described (Wardell et al., (2013) Clin Cancer Res 19 (9):2420-2431). […] Animal tissues were processed and analyzed as described (Wardell et al., (2013) Clin Cancer Res 19 (9):2420-2431).
# The ability of RAD1901 (FIG. 5A) to modulate the […] estradiol (E2) dependent transcriptional activity of the human estrogen receptor alpha (ESR1) and human estrogen receptor beta (ESR2) was assessed in transiently transfected SKBR3 cells using a synthetic reporter gene. […] DNA content as assessed by fluorescence was measured as a surrogate for cell proliferation. The relative increase in DNA fluorescence was calculated by normalizing to baseline values detected in a duplicate plate of cells that was harvested on day 1 prior to the initial treatment. […] For FIG. 5F, expression of ESR1 target genes in tumors was analyzed essentially as in (C).
# [2] = system: LTED MCF7 cells; test: LTED MCF7 cell proliferation assay; format: cell-based; settings: model of aromatase resistance, 10^-11-10^-6 M, 8 day assay
# [3] = system: MCF7 cells; test: MCF7 proliferation in response to E2 or insulin; format: cell-based; settings: SERMs and SERDs 10^-6 M, insulin 2×10^-9 M
# Procedure: The expression of ESR1 target genes responsive to (FIG. 10A) agonists, (FIG. 10B) primarily SERMs, or (FIG. 10C) SERMs and agonists was analyzed as in FIG. 5. Relative changes of these and additional target genes designed to evaluate dose dependent response to RAD1901 are presented in FIG. 11. Significant target gene regulation (*p<0.05) as compared to the vehicle control was detected by 2 way ANOVA followed by Fisher's LSD (Graphpad Prism 6). […] Triplicate wells of SKBR3 cells were transfected with plasmids expressing ESR1 fused to VP16 together with Gal4DBD alone (control) or Gal4DBD fused to ESR1 interacting peptides noted on the horizontal axis. Cells were then treated with the indicated ESR1 ligands (10^−7 M unless otherwise indicated). Interaction of ESR1 with the Gal4DBD peptide constructs was detected through activation of a Gal4-responsive luciferase reporter construct and was normalized to detected β-galactosidase activity expressed in a constitutive manner using a second vector. Normalized response was expressed as fold increase over the detected level of interaction between Gal4DBD alone and ESR1-VP16 in the absence of ligand (Veh). For FIG. 10E, the effect of SERMs and SERDs (10^−6 M) on the proliferation of MCF7 cells in response to E2 (10^−9 M) or insulin (2×10^−9 M) was evaluated as in FIG. 5. Statistically similar treatments (2-way ANOVA followed by Bonferroni comparison) are indicated by letters. […] The expression of ESR1 target genes responsive to (A) agonists, (B) primarily SERMs, or (C) SERMs and agonists was analyzed using RT qPCR following RNA isolation. mRNA expression was normalized (ΔΔCT analysis) to the similarly detected 36B4 housekeeping. The profiles presented in dendogram format were analyzed with the Ward hierarchical clustering algorithm (JMP 11) using standardized data.
# [4] = target: T1, ESR1 (Homo sapiens, UniProt P03372); test: ESR1 expression in LTED MCF7 cells (immunoblot); format: cell-based; settings: 24 hours, SERDs 10^-6 M
# T1 sequence (P03372 1-595): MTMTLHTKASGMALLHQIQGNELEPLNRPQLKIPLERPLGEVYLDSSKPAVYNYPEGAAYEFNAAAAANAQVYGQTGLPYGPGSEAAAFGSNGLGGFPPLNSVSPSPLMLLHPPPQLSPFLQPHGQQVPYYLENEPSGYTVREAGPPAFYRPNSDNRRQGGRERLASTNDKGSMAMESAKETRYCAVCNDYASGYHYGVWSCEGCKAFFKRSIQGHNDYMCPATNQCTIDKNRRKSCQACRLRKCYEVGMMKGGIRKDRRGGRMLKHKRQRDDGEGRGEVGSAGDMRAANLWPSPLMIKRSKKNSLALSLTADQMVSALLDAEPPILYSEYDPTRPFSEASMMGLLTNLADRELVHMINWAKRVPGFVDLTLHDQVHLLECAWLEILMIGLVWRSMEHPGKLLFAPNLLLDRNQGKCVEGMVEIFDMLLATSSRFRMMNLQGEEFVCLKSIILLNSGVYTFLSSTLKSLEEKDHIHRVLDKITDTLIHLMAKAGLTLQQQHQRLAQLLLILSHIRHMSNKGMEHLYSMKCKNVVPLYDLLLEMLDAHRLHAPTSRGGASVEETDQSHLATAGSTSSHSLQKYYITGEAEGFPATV
# Procedure: MCF7 and SKBR3 cell lines were maintained in DMEM/F12 or RPMI media (Invitrogen), respectively, supplemented with 8% fetal bovine serum (FBS, Gemini), non-essential amino acids (Invitrogen), and sodium pyruvate (Invitrogen). Unless otherwise indicated, cells were plated for experiments in media lacking phenol red and supplemented with 8% charcoal stripped FBS (CFS, Gemini). LTED MCF7 cells were maintained and plated for experiments in phenol red free DMEM/F12 media supplemented with 8% CFS that had been charcoal stripped twice. 48 hours after plating, cells were treated with ESR1 ligands as indicated, and were harvested for immunoblot or real time quantitative PCR analysis 24 hours after treatment.
# Expression of ESR1 and loading control cytokeratin 18 (CK18—FIG. 7A) in whole cell extracts were detected by immunoblot (top). ESR1 levels relative to CK18 were quantitated by densitometry using Adobe Photoshop (bottom). […] ESR1 expression was detected as in FIG. 6A. For FIGS. 6C-6D, LTED MCF7 cells were plated in phenol red free media supplemented with FBS that was stripped of growth factors twice using charcoal. For FIG. 6C, after 48 hours, cells were treated for 24 hours with E2 (10^−7 M) or SERDs (10^−6 M) and ESR1 was analyzed as in FIG. 6A.
Compound,expression of ESR1-target genes PGR and FHL1 in treated tumors [1],cell proliferation [2],insulin-stimulated proliferation [3],ESR1 expression levels [4]
"CC/C(=C(\c1ccccc1)c1ccc(OCCN(C)C)cc1)c1ccccc1 [tamoxifen, reference compound]",suppress the expression of the ESR1-target genes PGR and FHL1 to the same degree,minimally effective,,
4-hydroxytamoxifen [4OHT],,,without effect,
"C[C@]12CC[C@@H]3c4ccc(O)cc4C[C@@H](CCCCCCCCC[S+]([O-])CCCC(F)(F)C(F)(F)F)[C@H]3[C@@H]1CC[C@@H]2O (stereo partly shown) [ICI, ICI 182,780]",,inhibited cell proliferation,efficiently inhibited,downregulated ESR1 expression
"O=C(c1ccc(OCCN2CCCCC2)cc1)c1c(-c2ccc(O)cc2)sc2cc(O)ccc12 [Ralox, raloxifene]",,,without effect,
